Results published in ChEMBL document CHEMBL4376832, “Changing the Rules of TB-Drug Discovery” (J Med Chem, 2019).
pIC50: −log10 of the molar value. ≈ marks a conversion by molar mass, not a printed value.

Assays:
[1] = tested on: Mycobacterium tuberculosis; test: Antimycobacterial against GFP-transfected Mycobacterium tuberculosis H37Rv assessed as reduction in GFP protein expression and measured every 2 days for 12 days; assay type: functional
[2] = Inhibition of ATP-synthase (unknown origin); parameters: species or system Homo sapiens
[3] = Inhibition of Mycobacterium phlei DSM-43239 C-terminal ATP-synthase assessed as reduction in luciferase activity incubated for 10 mins in presence of ATP by luminometric method; parameters: species or system Mycolicibacterium phlei DSM 43239 = CCUG 21000

Compound | MIC [1] [µM] | pIC50 [2] | pIC50 [3]
COc1ccc(S(=O)(=O)N2CCCCCC2)cc1NC(=O)Cc1nnc(O)c2ccccc12 | 250 (≈ 118 µg/mL) | – | –
COc1nc2ccc(Br)cc2cc1[C@@H](c1ccccc1)[C@@](O)(CCN(C)C)c1cccc2ccccc12 [BEDAQUILINE] | – | < 3.70 | 7.60 to 7.70
